Measurements: US8148058B2, “Method for screening allergic disease-related molecule and cell lines to be used in the method” (Tokyo University of Science Educational Foundation …, priority 2006, dated 2012)

Key:
[1] = system: RCCM cells; test: Proliferation of RCCM cells, 3H-thymidine uptake; assay type: cell-based, mouse; conditions: 48 hours culture, then 12 hours 3H-thymidine; for proliferation of RCCM cells in response to inhibitor (uptake amount of 3H-thymidine): 1/2 serial dilutions starting with 10 ng/ml
Experimental: (§1) R cells, N62.5 cells, or RCCM cells obtained in Example 1 were placed in each well of a 96-well microplate at a seeding density of 1.5×10^4 cells/well. A culture medium in which the content of RCGF was changed was used and the sensitivities of the cells to RCGF were confirmed.
(§2) The concentrations of RCGF were set to 10 v/v %, 0.1 v/v %, and 0 v/v %. The cells were cultured in an RPMI 1640 culture medium containing 10% by volume of serum at 37° C. in 5% CO2 atmosphere for 48 hours. Thereafter, ^3H-thymidine was added to the culture medium so as to give a final concentration of 0.5 μCi/ml, and the resultant was further cultured for 12 hours and the uptake amount of ^3H during the time was measured. After the reaction, the uptake amount of ^3H-thymidine was measured using MicroBeta TRIL UX (manufactured by WALLAC). In FIGS. 1 (A) to (C), black rhombuses indicate RCCM cells, black squares indicate R cells, and black triangles indicate N62.5 cells.
R cells, N62.5 cells, or RCCM cells obtained in Example 1 were placed in each well of a 96-well microplate at a seeding density of 1.5×10^4 cells/well.
(§3) In this regard, the concentration of RCGF was based on ½ serial dilutions (starting with 80% by volume of the culture medium). […] Thereafter, ^3H-thymidine was added to the culture medium so as to give a final concentration of 0.5 μCi/ml, and the resultant was further cultured for 12 hours and the uptake amount of ^3H during the time was measured. […]
R cells, N62.5 cells, or RCCM cells obtained in Example 1 were placed in each well of a 96-well microplate at a seeding density of 1.5×10^4 cells/well in the same manner as described in Example 4. ½ serial dilutions (starting with 10 ng/ml) of phorbol 12-myristate 13 acetate (PMA) were added to each well, and culturing was performed at 37° C. in 5% CO2 atmosphere for 48 hours. Thereafter, ^3H-thymidine was added to the culture medium so as to give a final concentration of 0.5 μCi/ml, which was further cultured for 12 hours and the uptake amount of ^3H during the time was measured. […]

[2] = system: N62.5 cells; test: Proliferation of N62.5 cells, 3H-thymidine uptake; assay type: cell-based, mouse; conditions: 48 hours culture, then 12 hours 3H-thymidine
Experimental: as §1
as §2, with “cells. […]” for “cells.”
as §3

[3] = system: P185 cells; test: Proliferation of P185 cells (basophil-like cell line), 3H-thymidine uptake; assay type: cell-based; conditions: 1/2 serial dilutions starting with 10 ng/ml; 48 hours culture, then 12 hours 3H-thymidine
Experimental: R cells, N62.5 cells, or RCCM cells obtained in Example 1 and P185 cells (a basophil-like cell line) were placed in each well of a 96-well microplate at a seeding density of 1.5×10^4 cells/well in the same manner as described in Example 4. ½ serial dilutions (starting with 10 ng/ml) of LY294002 (a PI3K inhibitor; Cat No. FA-002, manufactured by SuperArray) and Rottlerin (a PKC inhibitor; Cat No. 557370, manufactured by CALBIOCHEM) were added to each well, which was cultured at 37° C. in a 5% CO2 atmosphere for 48 hours. Thereafter, ^3H-thymidine was added to the culture medium so as to give a final concentration of 0.5 μCi/ml, and culturing was further performed for 12 hours and the uptake amount of ^3H during the time was measured. In FIGS. 7 and 8, black squares indicate R cells, black triangles indicate N62.5 cells, black rhombuses indicate RCCM cells, and black circles indicate P185. FIG. 7 is a graph showing the response of respective cells to LY294002. FIG. 8 is a graph showing the response of respective cells to Rottlerin.

[4] = system: R cells; test: Proliferation of R cells, 3H-thymidine uptake; assay type: cell-based, mouse; conditions: 1/2 serial dilutions starting with 10 ng/ml; 48 hours culture, then 12 hours 3H-thymidine
Experimental: as §1
as §2, with “cells. […]” for “cells.”
as §3

[5] = system: R cell; test: Maintenance / growth potential of R cells in culture with cytokines or RCGF; assay type: cell-based, mouse
Experimental: Further, anti-Thy1.2 antibodies (manufactured by Pharmingen) and complement (rabbit serum, manufactured by Pel-Freeze) were respectively added to the resulting culture at 1 μg/ml and at a final concentration of 10% by volume per 1×10^7 cells/100 μl. After about 30 minutes of reaction, […] therefrom and the cultivation was continued while the RCGF was added at various concentrations.
Thereafter, respective cell lines were cultured in accordance with the dilution method over the course of three weeks and cloned.

CC(=O)c1c(O)c(C)c(O)c(Cc2c(O)c3c(c(C(=O)/C=C/c4ccccc4)c2O)OC(C)(C)C=C3)c1O [Rottlerin]
proliferation of RCCM cells in response to inhibitor (uptake amount of 3H-thymidine) [1]: rapidly suppressed | proliferation of N62.5 cells in response to inhibitor (uptake amount of 3H-thymidine) ([2]; 1/2 serial dilutions starting with 10 ng/ml): rapidly suppressed | proliferation of basophil-like cell line P185 in response to inhibitor (uptake amount of 3H-thymidine) [3]: growth inhibition | proliferation of R cells in response to inhibitor (uptake amount of 3H-thymidine) [4]: rapidly suppressed

IFN-γ: cytokine
sensitivity / growth potential of R cell against cytokine [5]: does not show sensitivity

IL-6: interleukin, Th2 type cytokine
sensitivity / growth potential of R cell against cytokine [5]: high growth potential

GM-CFS: cytokine
sensitivity / growth potential of R cell against cytokine [5]: does not show sensitivity

IL-13: interleukin, Th2 type cytokine
sensitivity / growth potential of R cell against cytokine [5]: high growth potential

IL-5: interleukin, Th2 type cytokine
sensitivity / growth potential of R cell against cytokine [5]: high growth potential

IL-9: interleukin, Th2 type cytokine
sensitivity / growth potential of R cell against cytokine [5]: high growth potential

CCCCCCCCCCCCCC(=O)O[C@@H]1[C@@H](C)[C@@]2(O)[C@@H](C=C(CO)C[C@]3(O)C(=O)C(C)=C[C@@H]23)[C@@H]2C(C)(C)[C@]12OC(C)=O [PMA, phorbol 12-myristate 13 acetate]
proliferation of RCCM cells in response to inhibitor (uptake amount of 3H-thymidine) [1]: suppressed by a low concentration

B1: IL-7: cytokine (protein, UniProt P13232 26-177, looked up)
Interleukin-7: DCDIEGKDGKQYESVLMVSIDQLLDSMKEIGSNCLNNEFNFFKRHICDANKEGMFLFRAARKLRQFLKMNSTGDFDLHLLKVSEGTTILLNCTGQVKGRKPAALGEAQPTKSLEENKSLKEQKKLNDLCFLKRLLQEIKTCWNKILMGTKEH
sensitivity / growth potential of R cell against cytokine [5]: does not show sensitivity

B2: IL-4: recombinant cytokine, manufactured by PeproTech (protein, UniProt P05112 25-153, looked up)
Interleukin-4: HKCDITLQEIIKTLNSLTEQKTLCTELTVTDIFAASKNTTEKETFCRAATVLRQFYSHHEKDTRCLGATAQQFHRHKQLIRFLKRLDRNLWGLAGLNSCPVKEANQSTLENFLERLKTIMREKYSKCSS
sensitivity / growth potential of R cell against cytokine [5]: high growth potential | proliferative response of RCCM cells to RCGF / cytokines (uptake amount of 3H-thymidine) ([1]; various concentrations): no difference in growth potential | proliferative response of N62.5 cells to RCGF / cytokines (uptake amount of 3H-thymidine) ([2]; various concentrations): did not show sensitivity

B3: IL-10: cytokine (protein, UniProt P22301 19-178, looked up)
Interleukin-10: SPGQGTQSENSCTHFPGNLPNMLRDLRDAFSRVKTFFQMKDQLDNLLLKESLLEDFKGYLGCQALSEMIQFYLEEVMPQAENQDPDIKAHVNSLGENLKTLRLRLRRCHRFLPCENKSKAVEQVKNAFNKLQEKGIYKAMSEFDIFINYIEAYMTMKIRN
sensitivity / growth potential of R cell against cytokine [5]: does not show sensitivity
